Experimental data: PubChem BioAssay AID2305 (GlaxoSmithKline (GSK), 2010)

What follows are compounds tested on P. falciparum 3D7 growth, pLDH absorbance (assay: P. falciparum 3D7 growth inhibition, dose response, strain 3D7 (AID 2305)).
Compound CC(C)CCNCc1ccc(OCc2cccc(COc3ccc(CNCCC(C)C)cc3I)c2)c(I)c1 has an IC50 of 450 nM.
In the case of O=C(/C=C/c1ccc(C(F)(F)F)cc1)NCCCCCN1CCN(C(=O)Nc2ccc(F)c(Cl)c2)CC1, the IC50 is reported as 1210 nM.
COc1ccc(NC(=O)[C@H](Cc2ccccc2)Nc2nc(NCCN3CCCC3)ncc2C)cc1 showed an IC50 of 990 nM.
Work on N#Cc1cc([N+](=O)[O-])ccc1-n1nc(C(N)=O)n(Cc2cccc(F)c2)c1=S yielded an IC50 of 720 nM.
CCCCc1ccc(C(=O)Nc2ccc3nc(N4CCN(C)CC4)cc(C)c3c2)cc1 was tested, and the IC50 was 1100 nM.
Work on NC(=O)c1ccccc1OCC(=O)Nc1cccc(-c2ccc(-c3nc4ccccc4[nH]3)cc2)c1 yielded an IC50 of 790 nM.
Work on NC(=Nc1nc(-c2ccccn2)cc2ccccc12)c1cccc(Cl)c1 yielded an IC50 of 310 nM.
For N#Cc1ccc2c(c1)CN(CCC1CCC(NC(=O)c3cc4cnccc4[nH]3)CC1)CC2 (configuration not stated), the IC50 was 800 nM.
Work on COc1ccc(NC(=O)/C=C/c2ccccc2Cl)cc1OCCN1CCC(N2CCN(C)CC2)CC1 yielded an IC50 of 490 nM.
O=C(NC(NC(=S)Nc1ccc([N+](=O)[O-])cc1)C(Cl)(Cl)Cl)c1cccc(Cl)c1 (configuration not stated) showed an IC50 of 730 nM.
In the case of CCOc1ccccc1C=CC(=O)Nc1ccc2nc(N3CCN(C)CC3)cc(C)c2c1, the IC50 is reported as 270 nM.
Compound COc1ccc(CNCc2ccc(-c3ccc(-c4nc5c(C)cccc5[nH]4)s3)cc2)cc1 has an IC50 of 180 nM.
Cc1[nH]c(C)c(-c2ccc(Oc3cc(Cl)cc(Cl)c3)cc2)c(=O)c1Br gave an IC50 of 240 nM.
COC(=O)c1cccc(CNCc2cccc(-c3cccc(-c4nc5ccc(C(F)(F)F)cc5[nH]4)c3)c2)c1 gave an IC50 of 170 nM.
In the case of O=C(NC(Nc1ccc([N+](=O)[O-])cc1)C(Cl)(Cl)Cl)c1ccc(Cl)cc1 (configuration not stated), the IC50 is reported as 780 nM.
O=C(/C=C/c1ccc(Cl)c(Cl)c1)NCCCCCN1CCC(NC(=O)Nc2ccc(C(F)(F)F)cc2)CC1 showed an IC50 of 750 nM.
In the case of N#Cc1ccc(N2CCN(Cc3ccc(-c4ccc(-c5nc6ccc(F)cc6[nH]5)s4)cc3)CC2)nc1, the IC50 is reported as 850 nM.
COc1cc2nc(-c3ccccc3)nc(N3CCN(C(=O)c4ccco4)CC3)c2cc1OC was tested, and the IC50 was 1410 nM.
Work on COc1ccc(C[C@H]2NC[C@H](O)[C@H]2OC(C)=O)cc1 yielded an IC50 of 140 nM.
COc1cc(Cc2cnc(N)nc2N)cc(OCCCC(=O)O)c1OC gave an IC50 of 1180 nM.
In the case of O=C(NC1CCN(Cc2ccccc2)CC1)c1cccc(Nc2nc(-c3ccccc3)cs2)c1, the IC50 is reported as 1030 nM.
For CC(C)c1sc(N2CCN(C)CC2)nc1C(=O)NCCc1cccc(Cl)c1, the IC50 was 1490 nM.
With COc1ccc2nccc([C@@H](O)CN3CCC(NC(=O)C(c4ccccc4C)N4CCC(Cc5ccccc5)CC4)CC3)c2c1 (some centres not stated) the IC50 was 260 nM.
With c1cc(CN2CCCCC2)cc(-c2csc(-c3nc4ccccc4[nH]3)c2)c1 the IC50 was 850 nM.
O=C(NCCCN1CCOCC1)c1csc(Nc2ccc(Cl)c(Cl)c2)n1 gave an IC50 of 920 nM.
Compound CCCCNCc1ccc(-c2nc(CN(Cc3ccc(Cl)c(Cl)c3)C(=O)CN(C)C)cs2)cc1 has an IC50 of 800 nM.
c1cncc(CN2CCN(Cc3ccc(-c4ccc(-c5nc6ccccc6[nH]5)s4)cc3)CC2)c1 gave an IC50 of 940 nM.
Work on CSc1ccc(CN2CCC(NC(=O)c3ccc(-c4cccc(C(F)(F)F)c4)s3)CC2)cc1 yielded an IC50 of 1220 nM.
With COc1ccc2nc(C)cc(NN=Cc3ccncc3)c2c1 the IC50 was 700 nM.
With CCc1cc2c(=O)c(-c3nc(C)cs3)c(N)oc2c(CN2CCCCC2)c1O the IC50 was 660 nM.
CCCNCc1ccc(-c2ccc(CN(CCOC)C(=O)c3ccc([N+](=O)[O-])c(C)c3)cc2)nc1 showed an IC50 of 870 nM.
Work on CN(C)Cc1cccc(-c2ccc(Nc3nccc(NCC(O)c4ccccc4)n3)cc2)c1 (configuration not stated) yielded an IC50 of 140 nM.
In the case of CCCCCC(C)C(C)c1cc(OC(N)=O)c2c(c1)OC(C)(C)C=C2c1ccncc1 (configuration not stated), the IC50 is reported as 900 nM.
Work on CCNc1cc(C(=O)N[C@@H](Cc2ccccc2)[C@H](O)CN[C@H](C)C(C)(C)C)cc(N2CCCCS2(=O)=O)c1 yielded an IC50 of 820 nM.
In the case of O=C(Nc1ccccc1)c1ccc(-c2cc3ccncc3cc2OC2CCNCC2)s1, the IC50 is reported as 650 nM.
Compound Nc1ncc(-c2ccsc2)c2ccc(-c3ccc4cn[nH]c4c3)cc12 has an IC50 of 810 nM.
Work on O=C1COC2(CN1CC1CCN(Cc3ccc(O)c(Cl)c3)C1)c1ccccc1-c1ccccc12 (configuration not stated) yielded an IC50 of 1060 nM.
O=C(NC1CCN(CCN2CCC(c3c[nH]c4ccccc34)CC2)CC1)c1ccc(-c2ccc(C(F)(F)F)cc2)cc1 gave an IC50 of 200 nM.
Cc1ccc2cc(NCCCCCCCCON3C(N)=NC(N)=NC34CCCCC4)ccc2n1 was tested, and the IC50 was 160 nM.
In the case of CCCn1cnc2cc(C(=O)Nc3ccc(-c4cccc(CN(C)C)c4)cc3)ccc2c1=O, the IC50 is reported as 930 nM.
COc1ccc(CN2CCCN(Cc3cccc(NC(=O)c4cc5ccccc5s4)c3)CC2)cc1 gave an IC50 of 840 nM.
Work on O=C(Cc1cc(F)cc(F)c1)NC1CCN(c2ccnc3cc(Cl)ccc23)C1 (configuration not stated) yielded an IC50 of 250 nM.
Compound C=C1C[C@@H](n2cnc3c(NC(=O)c4ccccc4)ncnc32)[C@@H](F)[C@@H]1OC(c1ccccc1)(c1ccccc1)c1ccccc1 has an IC50 of 140 nM.
With Fc1ccccc1C=NNc1ccnc2ccc(C(F)(F)F)cc12 the IC50 was 870 nM.
Work on O=C(Cc1cc(=O)oc2cc(O)ccc12)NC1CCC(CN2CCC(c3c[nH]c4ccccc34)CC2)CC1 (configuration not stated) yielded an IC50 of 1130 nM.
Work on Oc1ccccc1CN(CCCN(Cc1ccccn1)Cc1ccccc1O)Cc1ccccn1 yielded an IC50 of 1060 nM.
For COc1cccc(NC(=O)COc2ccc(C(=O)Nc3nc4ccccc4[nH]3)cc2)c1, the IC50 was 970 nM.
Work on Cc1sc(C)c(CNCCCNc2cc(=O)c3ccccc3[nH]2)c1Br yielded an IC50 of 880 nM.
With O=C(NC1CCC(CCN2Cc3cccc(F)c3C2)CC1)c1cccc(-c2cccnc2)c1 (configuration not stated) the IC50 was 300 nM.
NC(=O)c1cccc(Nc2nccc(Nc3ccc(Oc4ccc5ccccc5c4)cc3)n2)c1 was tested, and the IC50 was 810 nM.
O=C(/C=C/c1ccc2ccccc2c1)NCC1(c2ccc(-c3ccccc3)cc2)CCOCC1 showed an IC50 of 1520 nM.
Compound CC1CN(S(=O)(=O)c2ccc(NC(=O)c3cc(-c4ccccc4O)n[nH]3)cc2)CC(C)O1 (configuration not stated) has an IC50 of 830 nM.
With Cc1nnsc1C(=O)Nc1cccc(-c2cccc(-c3nc4ccc(C(F)(F)F)cc4[nH]3)c2)c1 the IC50 was 240 nM.
N#Cc1ccc(N(CC(=O)NCCc2ccccc2)CC2CC2)c2ccccc12 gave an IC50 of 730 nM.
With Cc1ccccc1C1CCN(C2CCC(NC(=O)c3ccc(-c4ccccc4F)o3)CC2)CC1 (configuration not stated) the IC50 was 1050 nM.
COc1ccc(C2CC(=O)C3=C(C2)NC(C)=C(C(=O)OC(C)C)C3c2cccc(O)c2)cc1OC (configuration not stated) was tested, and the IC50 was 780 nM.
Work on CS(=O)(=O)c1ccc(CCNCc2ccc(-c3ccc(CN(C(=O)c4cccc(C#N)c4)C4CCN(Cc5ccccc5)CC4)cc3)nc2)cc1 yielded an IC50 of 980 nM.
With CCNc1cc(C(=O)N[C@@H](Cc2ccccc2)[C@H](O)CNC2C3CC4CC(C3)CC2C4)cc(N2CCCCS2(=O)=O)c1 (some centres not stated) the IC50 was 670 nM.
For CCCCNC(=O)[C@H](CC1CCCCC1)NC(=O)c1ccc(O)c(-c2cccc(C(F)(F)F)c2)c1, the IC50 was 770 nM.
Cc1nc(C(C)Nc2nncc(-c3ccc(Cl)cc3)n2)cs1 (configuration not stated) gave an IC50 of 1330 nM.
With Oc1ccc(Cl)cc1CN1CCC2(CCCN(CC3CCC3)C2)C1 (configuration not stated) the IC50 was 370 nM.
CCCc1cc(C(=O)N[C@@H](Cc2ccccc2)[C@H](O)CNC(C)C)c(F)c(N2CCCC2=O)c1 was tested, and the IC50 was 940 nM.
Cc1cccc2[nH]c(-c3ccc(-c4ccc(CN5CCCCC5)cc4)s3)nc12 showed an IC50 of 520 nM.
CC(C)(C)c1cc(Cn2ccnc2)cc(C(C)(C)C)c1O gave an IC50 of 1040 nM.
Compound N#Cc1ccccc1S(=O)(=O)N1CCCC(CNC(=O)[C@H](CC2CCCCC2)NC(=O)c2cc3ccccc3s2)C1 (some centres not stated) has an IC50 of 510 nM.
For COc1ccc(-c2nc3nc4ccccc4cc3[nH]2)c(OCC(O)CNC(C)C)c1 (configuration not stated), the IC50 was 690 nM.
CC(C)[C@H](NC(=O)c1c(F)cccc1F)C(=O)Nc1ccc(Cc2nc3ccccc3s2)cc1 gave an IC50 of 500 nM.
COc1coc(C(=O)NC2CCN(CC3(c4ccc(Cl)cc4)CCC3)CC2)c1OC gave an IC50 of 160 nM.
With Cc1cc2nc(/N=C(\N)NC(=O)NC3CCCCC3)nc(C)c2cc1C the IC50 was 750 nM.
In the case of COc1cccc(OC)c1C(=O)N1CCC2(CC1)C(=O)N(CC(=O)NC1CCCCC1)CN2c1ccccc1, the IC50 is reported as 950 nM.
Compound Cc1cc(C)c(S(=O)(=O)N2CCCCC(c3cccc(C(F)(F)F)c3)=N2)c(C)c1 has an IC50 of 460 nM.
Work on O=C(Nc1ccccc1)N(Cc1cccc(-c2ccc(CNC3CCCC3)cc2)c1)C1CCN(Cc2ccccc2)CC1 yielded an IC50 of 390 nM.
Cc1ccc2[nH]c(C3CCCNC3)c(-c3ccncc3)c2c1 (configuration not stated) was tested, and the IC50 was 1230 nM.
Cc1cc(-c2cccc(CNC3CCN(C)CC3)c2)ccc1S(=O)(=O)NC1CCC1 was tested, and the IC50 was 730 nM.
For O=C(NCc1cc2c(cc1Cl)OCO2)c1ccc(CNC2CCN(Cc3ccccc3)CC2)cc1, the IC50 was 830 nM.
In the case of CN(C)c1ccc(C=Cc2ccc3ccccc3n2)c(Cl)c1, the IC50 is reported as 440 nM.
CC(=O)Nc1ncc(C(=O)Nc2cccc(-c3ccc(-c4nc5ccccc5[nH]4)cc3)c2)s1 showed an IC50 of 670 nM.
CC(=O)N(Cc1cccc(-c2ccc(CNCCc3ccccc3)cc2)c1)C1CCN(Cc2ccccc2)CC1 was tested, and the IC50 was 690 nM.
CCN1CCN(CCCNc2c3ccccc3nc3ccccc23)CC1 showed an IC50 of 800 nM.
With OC(c1n[nH]c(=S)n1-c1ccccc1)C(O)c1n[nH]c(=S)n1-c1ccccc1 (configuration not stated) the IC50 was 740 nM.
Work on CC(=O)Nc1cccc(C(=O)Nc2nc3ccc(-c4cc(=O)[nH]c(Nc5ccccc5Cl)n4)cc3[nH]2)c1 yielded an IC50 of 690 nM.
Cc1ccc2c(-c3ccc([N+](=O)[O-])o3)cc(C)nc2c1 was tested, and the IC50 was 40 nM.
Work on Cc1cc(N[C@@H](Cc2ccccc2)C(=O)NCCc2ccccc2)nc(NCC2CCCCC2)n1 yielded an IC50 of 920 nM.
With NC1=NC(c2ccccc2)(c2ccccc2)C(=O)N1Cc1ccc(-c2ccncc2)cc1 the IC50 was 770 nM.
O=C(Cc1cccc(OCCCN(Cc2cccc(C(F)(F)F)c2Cl)CC(c2ccccc2)c2ccccc2)c1)NCc1ccco1 was tested, and the IC50 was 940 nM.
With CN1CCC(N(C)C(=O)C=Cc2cn(-c3ccccc3)nc2-c2cc3ccccc3o2)CC1 the IC50 was 1340 nM.
With CCOC(=O)c1c(CN(CC)CC)n(-c2ccccc2)c2cc(Br)c(O)cc12 the IC50 was 1000 nM.
Work on CN(Cc1ccccc1)C1CCN(CCc2c[nH]c3ccc(F)cc23)CC1 yielded an IC50 of 600 nM.
For Cc1cc2c(cc1C(F)(F)F)N(C(=O)Nc1cc(OCCN(C)C)cc(C(F)(F)F)c1)CC2, the IC50 was 710 nM.
For Cc1cc2ncn(-c3nccc(NCc4cccnc4)n3)c2cc1C, the IC50 was 660 nM.
CC(C)NCc1ccc(-c2ccc(NC(=O)c3cccc(C#N)c3)cc2)cc1 gave an IC50 of 650 nM.
In the case of COc1ccc(N2CCN(CCCCNCc3ccc(NC(=O)c4cc(Cl)cc(Cl)c4)cc3)CC2)c(OC)c1, the IC50 is reported as 250 nM.
CCCCCN1CCCC1CNS(=O)(=O)c1ccc(C(=O)Nc2cccc(C(F)(F)F)c2)cc1 (configuration not stated) gave an IC50 of 1060 nM.
With Nc1nccc2ccc(-c3ccc(Oc4ccccc4)cc3)cc12 the IC50 was 280 nM.
N#Cc1ccc(CN2CCC(Oc3ccc(NC(=O)c4cccs4)cc3Cl)CC2)cc1 gave an IC50 of 580 nM.
In the case of c1cc(Nc2nc(-c3ccc(-c4csc(Nc5ccncc5)n4)cc3)cs2)ccn1, the IC50 is reported as 120 nM.
With CCCNCc1ccc(-c2ccc(CN(Cc3cccs3)C(=O)C3CCN(C)CC3)cc2)nc1 the IC50 was 660 nM.
